Like-named read-outs stand apart in the source and are kept apart here.
Key:
Assay type in all cases: cell-based
SARS-CoV-2 [1] = test: combination therapy, viral load by RT-PCR (ORF1ab gene) in Calu-3 cells; design: key to enhanced decrease of viral load, combination vs two single agents: Each combination that showed an enhanced decrease of viral load as compared with the two single agents is denoted by “E”; Combinations that showed a slight trend towards an enhanced decrease of viral load as compared with the two single agents is denoted by “(e)”; —
[2] = test system: human bronchial epithelial cells (HBE1); test: depletion of total cellular cholesterol in HBE1 cells; details: HBE1, 48 hours; 50-400 nM and 1-20 μM; concentrations marked (*) in FIGS. 1, 2; p<0.05
Description: Total cellular cholesterol was measured by spectrophotometry, and plotted as the ratio of absorbance to total protein in μg. […] Significant reductions in cholesterol content (≥50%, p<0.05) are indicated (*).

SARS-CoV-2 [3] = test system: SARS-CoV-2

`CCC(C)(C)C(=O)O[C@H]1C[C@@H](C)C=C2C=C[C@H](C)[C@H](CC[C@@H]3C[C@@H](O)CC(=O)O3)[C@H]21` [INS102, Simvastatin] was tested, and the “enhanced decrease of viral load, combination vs two single agents” value (“enhanced decrease of viral load” below) (SARS-CoV-2 [1]; statin 0.1 μM + Dex 0.1 μM) was “—”, the “enhanced decrease of viral load” value (SARS-CoV-2 [1]; statin 0.1 μM + Dex 1 μM) was “E” and the “enhanced decrease of viral load” value (SARS-CoV-2 [1]; statin 0.1 μM + Dex 10 μM) was “E”. For the same compound, the “enhanced decrease of viral load” value (SARS-CoV-2 [1]; statin 0.1 μM + Remde 1) was “—”, the “enhanced decrease of viral load” value (SARS-CoV-2 [1]; statin 0.1 μM + Remde 10) was “—” and the “enhanced decrease of viral load” value (SARS-CoV-2 [1]; statin 0.1 μM + Remde 100) was “—”. For the same compound, the “enhanced decrease of viral load” value (SARS-CoV-2 [1]; statin 1 μM + Dex 0.1 μM) was “E”, the “enhanced decrease of viral load” value (SARS-CoV-2 [1]; statin 1 μM + Dex 1 μM) was “E” and the “enhanced decrease of viral load” value (SARS-CoV-2 [1]; statin 1 μM + Dex 10 μM) was “—”. The “enhanced decrease of viral load” value (SARS-CoV-2 [1]; statin 1 μM + Remde 1) was “—”, the “enhanced decrease of viral load” value (SARS-CoV-2 [1]; statin 1 μM + Remde 10) was “—” and the “enhanced decrease of viral load” value (SARS-CoV-2 [1]; statin 1 μM + Remde 100) was “E”. For the same compound, the “enhanced decrease of viral load” value (SARS-CoV-2 [1]; statin 10 μM + Dex 0.1 μM) was “—”, the “enhanced decrease of viral load” value (SARS-CoV-2 [1]; statin 10 μM + Dex 1 μM) was “—” and the “enhanced decrease of viral load” value (SARS-CoV-2 [1]; statin 10 μM + Dex 10 μM) was “—”. The “enhanced decrease of viral load” value (SARS-CoV-2 [1]; statin 10 μM + Remde 1) was “—”, the “enhanced decrease of viral load” value (SARS-CoV-2 [1]; statin 10 μM + Remde 10) was “—” and the “enhanced decrease of viral load” value (SARS-CoV-2 [1]; statin 10 μM + Remde 100) was “E”. For the same compound, the “reduction in cholesterol content” value [2] was ≥ 50%, the “Average (percent cell viability)” value (SARS-CoV-2 [3]; Case A: compound added 1 h after infection, 72 h contact, 0.1 uM) was 5.506% and the “Average (percent cell viability)” value (SARS-CoV-2 [3]; Case A: compound added 1 h after infection, 72 h contact, 1 uM) was 7.304%. The “Average (percent cell viability)” value (SARS-CoV-2 [3]; Case A: compound added 1 h after infection, 72 h contact, 10 uM) was 17.48%, the “Average (percent cell viability)” value (SARS-CoV-2 [3]; Case B: compound added 24 h after infection, 48 h contact, 0.1 uM) was 6.427% and the “Average (percent cell viability)” value (SARS-CoV-2 [3]; Case B: compound added 24 h after infection, 48 h contact, 1 uM) was 9.597%. The “Average (percent cell viability)” value (SARS-CoV-2 [3]; Case B: compound added 24 h after infection, 48 h contact, 10 uM) was 11.85%, the “Average (percent cell viability)” value (SARS-CoV-2 [3]; Case C: compound added 48 h after infection, 24 h contact, 0.1 uM) was 3.967% and the “Average (percent cell viability)” value (SARS-CoV-2 [3]; Case C: compound added 48 h after infection, 24 h contact, 1 uM) was 2.16%. For the same compound, the “Average (percent cell viability)” value (SARS-CoV-2 [3]; Case C: compound added 48 h after infection, 24 h contact, 10 uM) was 6.117%, the “Average (percent cell viability)” value (SARS-CoV-2 [3]; Case D: pre-treated 6 h, then infected 72 h, 0.1 uM) was 35.26% and the “Average (percent cell viability)” value (SARS-CoV-2 [3]; Case D: pre-treated 6 h, then infected 72 h, 1 uM) was 31.9%. For the same compound, the “Average (percent cell viability)” value (SARS-CoV-2 [3]; Case D: pre-treated 6 h, then infected 72 h, 10 uM) was 33.31%, the “Average (percent cell viability)” value (SARS-CoV-2 [3]; Case E: pre-treated 24 h, then infected 72 h, 0.1 uM) was −0.98% and the “Average (percent cell viability)” value (SARS-CoV-2 [3]; Case E: pre-treated 24 h, then infected 72 h, 1.0 uM) was 29.28%. The “Average (percent cell viability)” value (SARS-CoV-2 [3]; Case E: pre-treated 24 h, then infected 72 h, 10.0 uM) was 46.90%, the “Average (percent cell viability)” value (SARS-CoV-2 [3]; Case F: compound 1 h before infection (coinc 1 h), then virus 72 h, 0.1 uM) was 10.1% and the “Average (percent cell viability)” value (SARS-CoV-2 [3]; Case F: compound 1 h before infection (coinc 1 h), then virus 72 h, 1 uM) was 8.721%. For the same compound, the “Average (percent cell viability)” value (SARS-CoV-2 [3]; Case F: compound 1 h before infection (coinc 1 h), then virus 72 h, 10 uM) was 19.4%.
